Test results reported in patent US20080014186A1, “Hla-A24 or Hla-A2 Binding Peptides of Parathyroid Hormone-Related Protein” (GREEN PEPTIDE CO., LTD., priority 2004, published 2008).
Ends that are not written are not given here.

Experiments:
LNCaP-A24 cells = test: 6-hr 51Cr-release cytotoxicity assay of peptide-stimulated PBMCs (HLA-A24); type: cell-based, human; conditions: LNCaP-A24 vs LNCaP and HLA-A24^+ PHA-blastoid T cells; FIG. 2A
Protocol: In order to investigate the HLA-A24-restricted and prostate cancer-reactive cytotoxicity of peptide-stimulated PBMCs, an HLA-A24-expressing LNCaP cell line, which was designated as LNCaP-A24, was prepared. The LNCaP is an HLA-A24 negative prostate cancer cell line. To establish LNCaP cells stably expressing HLA-A24 molecules (designated as LNCaP-A24), a pcDNA3.1/Hygro vector (Invitrogen, Calif.), which was inserted with the HLA-A*2402 gene, was electroporated into the LNCaP cell line (ATCC number: CRL-1740), and selection was carried out with hygromycin B (Invitrogen) at a dose of 170 μg/ml. All cell lines were maintained in RPMI-1640 medium (Gibco BRL, Grand Island, N.Y., USA) supplemented with 10% FCS. LNCaP has previously been reported to produce PTHrP (17). A parental LNCaP cell line was negative for the cell surface expression of HLA-A24 molecules, whereas the LNCaP-A24 cell line expressed HLA-A24 molecules on their cell surface. Flow cytometric analysis was performed on LNCaP and LNCaP-A24 cells. These cells were stained with anti-HLA-A24 mAb, followed by FITC-conjugated anti-mouse IgG mAb. The dotted lines represent staining without the first rnAb. […]

PC93-A2 cells = test: Cytotoxicity of peptide-stimulated PBMCs (HLA-A2); type: cell-based, human; conditions: PC93-A2 vs PC93 and PHA-stimulated T cell blasts; FIG. 4B, 5
Protocol: In a similar way to Example 2, it was examined whether or not PTHrP 42-51 and PTHrP 59-67 peptides could induce cancer-reactive CTLs in PBMCs derived from HLA-A2^+ healthy donors and prostate cancer patients. An HLA-A2-expressing PC93 prostate cancer cell line was prepared by constitutively expressing an HLA-A*0201 molecule on a PC93 cell which was a HLA-A2-prostate cancer cell line (established by Dr. K. Ohnishi, Department of Urology, Kyoto University) (PC93-A2 cell). The expression of the HLA-A*0201 molecule on the cell line was previously reported. In addition, the PC93 cells produced PTHrP at a level of 2.2 pmol/l (1×10^6 cell/ml for 24 hr).
Cytotoxicities of these peptide-stimulated PBMCs against PC93 cells, PC93-A2 cells, and PHA-stimulated T cell blasts are shown in FIG. 4B.

Row | Sequence | Induction of prostate cancer-reactive CTLs / cytotoxicity of peptide-stimulated PBMCs (LNCaP-A24 cells) | Induction of prostate cancer-reactive CTLs / cytotoxicity of peptide-stimulated PBMCs (PC93-A2 cells)
1 | RYLTQETNKV [PTHrP 102-111] | have the potential to induce prostate cancer-reactive CTLs | –
2 | RAVSEHQLL [PTHrP 36-44] | have the potential to induce prostate cancer-reactive CTLs | –
3 | FLHHLIAEI [PTHrP 59-67] | – | have the potential to induce prostate cancer-reactive CTLs
4 | QLLHDKGKSI | – | have the potential to induce prostate cancer-reactive CTLs
